Data published in patent publication US20230049952A1, “METHODS AND COMPOUNDS FOR RESTORING MUTANT P53 FUNCTION” (PMV Pharmaceuticals, Inc., priority 2020, published 2023).

Assays:
[1] = test system: p53 target genes in MT373 tumors; assay: MT373 syngeneic sarcoma model: p21, MDM2, GDF15 (MIC-1) mRNA RT-qPCR in tumors; assay type: in vivo, mouse; conditions: for MDM2 mRNA, Fold Change over Vehicle Control / MIC-1 mRNA, Fold Change over Vehicle Control / p21 mRNA, Fold Change over Vehicle Control: MT373 tumors
Protocol: Purification of RNA: Frozen tumor samples with the required weight were lysed in Buffer RLT with 10 μL/mL of β-mercaptoethanol using a TissueLyser LT. Total RNA was further purified from the lysate using QIAcube with DNase digestion, and RNA concentration was measured with a NanoDrop 2000 Spectrophotometer.
p21, MDM2, GDF15, and GAPDH Gene Expression: Individual gene expression was analyzed by one-step TaqMan-based real-time RT-qPCR. Purified total RNA was diluted to 2.5 ng/μL in DNase- and RNase-free water, and 10 ng was used for each 20 μL RT-qPCR assay using a LightCycler 96. A QuantiTect Probe RT-PCR Kit was used along with a specific primer/probe set as indicated. LAM-MGB labels were used for genes GAPDH, CDKN1a, MDM2, GDL15, and TRP53. The expression of the reference gene (human GAPDH and/or mouse GAPDH as indicated) in the ratio to the vehicle control was calculated using the ΔCt method with normalization to the total RNA input. The expression of a gene of interest relative to the reference gene was calculated using the ΔCt method, and the expression of a gene of interest relative to the reference gene in the ratio to the vehicle control was calculated using the ΔΔCt method.

MT373 tumors = assay type: in vivo; conditions: 75 and 150 mg/kg BID×1 PO
Source text: Randomization and Study Setup: Implanted animals were monitored for palpable tumors. Eighteen days post implant the animals with palpable tumors had their tumor sizes determined via digital caliper. Mice were selected and randomized into three treatment groups according to tumor size. Average tumor volume (mm^3) and body weight (g) are described in TABLE 17. Treatment began on the eighteenth day post-implant to facilitate twice daily dosing.
Measurements and Calculation of Tumor Volume: Tumor volume was calculated using the following equation: (longest diameter×shortest diameter^2)/2. Individual tumor volumes and body weight measurements were taken at the final timepoint. The calculation for percent tumor growth inhibition (TGI) is as follows: [1−((Tt−T0/Ct−C0))]×100, where Ct is the mean tumor volume of the vehicle control group at time t, C0 is the mean tumor volume of the vehicle control group at time 0, and T is the mean tumor volume of the treatment group. Tumor regression was determined with the equation [(T0−Tt)/T0]×100 using the same definitions.

BSEP = BSEP (Homo sapiens, UniProt O95342); assay: BSEP inhibition: TCA uptake into BSEP-expressing vesicles; assay type: in vitro ADME; conditions: 10 μM test article
BSEP, sequence (O95342 whole entry, species assumed): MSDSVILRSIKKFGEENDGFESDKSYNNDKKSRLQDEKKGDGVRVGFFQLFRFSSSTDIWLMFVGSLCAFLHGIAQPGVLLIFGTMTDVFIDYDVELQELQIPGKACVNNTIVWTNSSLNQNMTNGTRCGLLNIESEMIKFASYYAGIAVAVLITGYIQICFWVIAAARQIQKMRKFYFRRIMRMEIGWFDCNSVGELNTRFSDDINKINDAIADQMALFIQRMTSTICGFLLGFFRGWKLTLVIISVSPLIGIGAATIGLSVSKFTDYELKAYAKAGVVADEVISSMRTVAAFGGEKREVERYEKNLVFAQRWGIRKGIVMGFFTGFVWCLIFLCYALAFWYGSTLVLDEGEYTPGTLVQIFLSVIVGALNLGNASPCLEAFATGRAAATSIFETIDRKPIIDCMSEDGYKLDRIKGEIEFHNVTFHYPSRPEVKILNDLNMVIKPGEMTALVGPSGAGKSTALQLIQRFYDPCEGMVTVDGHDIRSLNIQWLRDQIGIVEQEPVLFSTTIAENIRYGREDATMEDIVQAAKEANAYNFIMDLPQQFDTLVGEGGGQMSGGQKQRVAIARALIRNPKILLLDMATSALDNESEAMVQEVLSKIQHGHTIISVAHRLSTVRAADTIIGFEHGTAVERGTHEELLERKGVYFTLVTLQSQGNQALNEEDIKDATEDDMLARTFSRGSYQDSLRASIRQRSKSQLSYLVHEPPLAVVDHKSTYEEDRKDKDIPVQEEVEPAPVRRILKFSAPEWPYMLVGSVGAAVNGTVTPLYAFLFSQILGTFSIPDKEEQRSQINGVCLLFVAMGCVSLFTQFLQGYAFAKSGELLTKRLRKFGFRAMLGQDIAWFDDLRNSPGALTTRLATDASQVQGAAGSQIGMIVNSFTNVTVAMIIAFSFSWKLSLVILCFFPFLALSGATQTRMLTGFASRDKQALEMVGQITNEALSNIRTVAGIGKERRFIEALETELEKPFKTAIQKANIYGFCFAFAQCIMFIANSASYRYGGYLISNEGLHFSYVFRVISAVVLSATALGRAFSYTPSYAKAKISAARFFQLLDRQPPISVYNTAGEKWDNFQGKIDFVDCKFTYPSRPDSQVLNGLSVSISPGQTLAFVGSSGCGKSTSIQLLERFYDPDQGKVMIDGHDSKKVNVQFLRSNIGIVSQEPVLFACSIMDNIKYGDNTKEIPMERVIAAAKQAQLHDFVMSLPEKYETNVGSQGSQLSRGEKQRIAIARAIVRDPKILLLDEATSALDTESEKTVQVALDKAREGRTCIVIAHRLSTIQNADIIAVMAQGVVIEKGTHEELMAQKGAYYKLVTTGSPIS
Protocol: An assay to measure BSEP-mediated TCA uptake into inside-out BSEP-expressing vesicles was used. […] The reaction was initiated by adding 5 mM ATP (adenosine 5′-triphosphate) as the energy source for BSEP. Negative controls were run in parallel, using 5 mM AMP (adenosine 5′-monophosphate) in place of ATP. The reactions were carried out in 96-well plates incubated in a humidified incubator (37° C. 5% CO2) for 30 minutes. After incubation, the vesicle-associated TCA and free TCA were separated by rapid filtration through a glass-fiber filter plate under vacuum.
All samples were assayed by liquid chromatography-tandem mass spectrometry (LC-MS/MS) using electrospray ionization. Liquid Chromatography was performed using a Thermo BDS Hypersil C18 30×2.1 mm, 3 μm, with guard column. […] The Aqueous Reservoir (A) was 90% water, 10% buffer. The Organic Reservoir (B) was 90% acetonitrile, 10% buffer. The Flow Rate was 700 μL/minute. The Total Run Time for the liquid chromatography was 2.5 minutes. The Autosampler was 20 μL injection volume. The Autosampler Wash was water/methanol/2-propanol: 1/1/1; with 0.2% formic acid. Mass Spectrometry was performed on the PE SCIEX API 4000 instrument. The interface was Turbo Ionspray. The mode was Multiple reaction monitoring. The method was performed over 2.5 minute duration.

[2] = 1 μM TCA, BSEP vesicles, 30 minutes

For `CCn1c(C#CCNc2ccccc2)cc2cc(CNC3CCN(C)CC3)ccc21` [Compound 1, 1-Anilino-3-{1-ethyl-5-[(1-methyl-4-piperidylamino)methyl]-1H-indol-2-yl}-2-propyne], the “MDM2 mRNA, Fold Change over Vehicle Control” value (from here on “MDM2 mRNA, Fold Change”) ([1]; 75 mg/kg BIDx1 PO, 8 h) was 6.16 fold, the “MIC-1 mRNA, Fold Change over Vehicle Control” value (shortened to “MIC-1 mRNA, Fold Change”) ([1]; 75 mg/kg BIDx1 PO, 8 h) was 1.74 fold and the “p21 mRNA, Fold Change over Vehicle Control” value (“p21 mRNA, Fold Change” for short) ([1]; 75 mg/kg BIDx1 PO, 8 h) was 5.43 fold. For the same molecule, the “MDM2 mRNA, Fold Change” value ([1]; 75 mg/kg BIDx1 PO, 24 h) was 2.44 fold, the “MIC-1 mRNA, Fold Change” value ([1]; 75 mg/kg BIDx1 PO, 24 h) was 1.14 fold and the “p21 mRNA, Fold Change” value ([1]; 75 mg/kg BIDx1 PO, 24 h) was 4.04 fold. For the same molecule, the “MDM2 mRNA, Fold Change” value ([1]; 75 mg/kg BIDx1 PO, 48 h) was 1.12 fold, the “MIC-1 mRNA, Fold Change” value ([1]; 75 mg/kg BIDx1 PO, 48 h) was 0.85 fold and the “p21 mRNA, Fold Change” value ([1]; 75 mg/kg BIDx1 PO, 48 h) was 1.43 fold. The “MDM2 mRNA, Fold Change” value ([1]; 75 mg/kg BIDx1 PO, 72 h) was 1.08 fold, the “MIC-1 mRNA, Fold Change” value ([1]; 75 mg/kg BIDx1 PO, 72 h) was 0.65 fold and the “p21 mRNA, Fold Change” value ([1]; 75 mg/kg BIDx1 PO, 72 h) was 1.18 fold. The “MDM2 mRNA, Fold Change” value ([1]; 75 mg/kg BIDx1 PO, 98 h) was 1.11 fold, the “MIC-1 mRNA, Fold Change” value ([1]; 75 mg/kg BIDx1 PO, 98 h) was 1.05 fold and the “p21 mRNA, Fold Change” value ([1]; 75 mg/kg BIDx1 PO) was 0.99 fold. For the same molecule, the “MDM2 mRNA, Fold Change” value ([1]; 75 mg/kg BIDx1 PO, […]) was 0.85 fold, the “MIC-1 mRNA, Fold Change” value ([1]; 75 mg/kg BIDx1 PO, […]) was 0.88 fold and the “p21 mRNA, Fold Change” value ([1]; 75 mg/kg BIDx1 PO, […]) was 0.98 fold. The “MDM2 mRNA increase” value ([1]; 75 mg/kg BID×1, 8 h) was 6.2 fold, the “p21 mRNA increase” value ([1]; 75 mg/kg BID×1, 8 h) was 5.4 fold and the “MDM2 mRNA increase” value ([1]; 75 mg/kg BID×1, 24 h) was 2.4 fold. The “p21 mRNA increase” value ([1]; 75 mg/kg BID×1, 24 h) was 4.0 fold, the “MDM2 mRNA, Fold Change” value ([1]; 150 mg/kg BIDx1 PO, 8 h) was 8.70 fold and the “MIC-1 mRNA, Fold Change” value ([1]; 150 mg/kg BIDx1 PO, 8 h) was 3.07 fold. The “p21 mRNA, Fold Change” value ([1]; 150 mg/kg BIDx1 PO, 8 h) was 6.73 fold, the “MDM2 mRNA, Fold Change” value ([1]; 150 mg/kg BIDx1 PO, 24 h) was 6.88 fold and the “MIC-1 mRNA, Fold Change” value ([1]; 150 mg/kg BIDx1 PO, 24 h) was 2.29 fold. The “p21 mRNA, Fold Change” value ([1]; 150 mg/kg BIDx1 PO, 24 h) was 9.61 fold, the “MDM2 mRNA, Fold Change” value ([1]; 150 mg/kg BIDx1 PO, 48 h) was 1.43 fold and the “MIC-1 mRNA, Fold Change” value ([1]; 150 mg/kg BIDx1 PO, 48 h) was 1.14 fold. For the same molecule, the “p21 mRNA, Fold Change” value ([1]; 150 mg/kg BIDx1 PO, 48 h) was 1.87 fold, the “MDM2 mRNA, Fold Change” value ([1]; 150 mg/kg BIDx1 PO, 72 h) was 1.33 fold and the “MIC-1 mRNA, Fold Change” value ([1]; 150 mg/kg BIDx1 PO, 72 h) was 0.93 fold. For the same molecule, the “p21 mRNA, Fold Change” value ([1]; 150 mg/kg BIDx1 PO, 72 h) was 1.33 fold, the “MDM2 mRNA, Fold Change” value ([1]; 150 mg/kg BIDx1 PO, 98 h) was 1.12 fold and the “MIC-1 mRNA, Fold Change” value ([1]; 150 mg/kg BIDx1 PO, 98 h) was 0.53 fold. For the same molecule, the “p21 mRNA, Fold Change” value ([1]; 150 mg/kg BIDx1 PO) was 1.01 fold, the “MDM2 mRNA, Fold Change” value ([1]; 150 mg/kg BIDx1 PO, […]) was 1.16 fold and the “MIC-1 mRNA, Fold Change” value ([1]; 150 mg/kg BIDx1 PO, […]) was 1.00 fold. For the same molecule, the “p21 mRNA, Fold Change” value ([1]; 150 mg/kg BIDx1 PO, […]) was 0.85 fold, the “MDM2 mRNA increase” value ([1]; 150 mg/kg BID×1, 8 h) was 8.7 fold and the “MIC-1 mRNA increase” value ([1]; 150 mg/kg BID×1, 8 h) was 3.07 fold. For the same molecule, the “p21 mRNA increase” value ([1]; 150 mg/kg BID×1, 8 h) was 6.7 fold, the “MDM2 mRNA increase” value ([1]; 150 mg/kg BID×1, 24 h) was 6.9 fold and the “MIC-1 mRNA increase” value ([1]; 150 mg/kg BID×1, 24 h) was 2.29 fold. For the same molecule, the “p21 mRNA increase” value ([1]; 150 mg/kg BID×1, 24 h) was 9.6 fold, the tolerability (MT373 tumors) was “well tolerated” and the “BSEP Inhibition Potential Classification” value (BSEP) was “Negative (Percent inhibition <50%: Negative)”. The “TCA Concentration, Cofactor AMP, AVG” value (BSEP; 1 μM TCA, AMP negative control) was 1.97 nM, the “TCA Concentration, Cofactor AMP, R1” value (BSEP; 1 μM TCA, AMP negative control) was 1.50 nM and the “TCA Concentration, Cofactor ATP, AVG” value (BSEP; [2]) was 85.5 nM. The “TCA Concentration, Cofactor ATP, R1” value (BSEP; [2]) was 87. nM, the “BSEP Inhibition Classification” value (BSEP; TCA 1 μM) was “negative” and the “Percent Inhibition” value (BSEP; negative values reported as 0) was 0%.
